Tests used:
[1] = tested on: mice; assay: Mouse forced swim test; format: in vivo; settings: 5.0, 10.0 and 20.0 mg/kg sc, 15 minutes prior
Procedure: Methods: Mice were placed in cylinders of water (25.0° C.±1.5° C.) for 6 minutes. The amount of immobility was quantified during the last 4 minutes of each session. The experimental observer was blind to the treatment conditions. […] Imipramine 45.0 mg/kg and citalopram 15.0 mg/kg were measured as the salt and administered ip 60 minutes prior to the behavioural session.

[2] = tested on: mice; assay: Tail suspension test; format: in vivo, mouse; settings: 30 mg/kg p.o., 60 minutes prior
Procedure: Antidepressant activity of 11-piperazin-1-yldibenzo[b,f][1,4]thiazepine was assessed in mice according to the tail suspension test. As shown in the results below, 11-piperazin-1-yldibenzo[b,f][1,4]thiazepine has antidepressant activity in mice.
In a first experiment, mice (n=10/group) were treated with vehicle, 2.0, 5.0, or 10.0 mg/kg of 11-piperazin-1-yldibenzo[b,f][1,4]thiazepine s.c. 15 minutes prior to the test session. Mice were suspended from their tails for 7 minutes. During the last 5 minutes of the test, the duration of immobility was recorded. In a second experiment, mice (n=10/group) were treated with vehicle, 30 mg/kg 11-piperazin-1-yldibenzo[b,f][1,4]thiazepine, or 30 mg/kg fluoxetine p.o. 60 minutes prior to the test session. Mice were suspended from their tails for 7 minutes. During the last 5 minutes of the test, the duration of immobility was recorded.

[3] = molecular target: dopamine D2 receptor (Homo sapiens, UniProt P14416); assay: In vitro binding, dopamine D2 receptor; settings: dihydrochloride salt; read-out: binding affinity K1
Sequence of dopamine D2 receptor (P14416 whole entry): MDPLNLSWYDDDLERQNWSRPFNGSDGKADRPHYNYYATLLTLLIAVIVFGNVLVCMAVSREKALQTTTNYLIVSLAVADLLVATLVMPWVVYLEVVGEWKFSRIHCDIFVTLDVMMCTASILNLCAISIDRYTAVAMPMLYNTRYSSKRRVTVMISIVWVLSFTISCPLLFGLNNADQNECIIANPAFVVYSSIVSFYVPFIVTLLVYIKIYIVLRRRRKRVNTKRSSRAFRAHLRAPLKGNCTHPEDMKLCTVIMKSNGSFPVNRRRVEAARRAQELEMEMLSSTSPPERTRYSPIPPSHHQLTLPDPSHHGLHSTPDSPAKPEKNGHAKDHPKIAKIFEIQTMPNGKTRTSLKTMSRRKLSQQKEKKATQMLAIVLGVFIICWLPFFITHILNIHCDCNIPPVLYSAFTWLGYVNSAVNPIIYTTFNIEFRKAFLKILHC

[4] = tested on: mice; assay: Standard apomorphine climbing mouse assay; format: in vivo; settings: p.o.
Description: The methods and procedures used can be found in Warawa et al., J. Med. Chem., 2001, 44 (3), 372-389, and are incorporated herein by reference.

[5] = molecular target: T1, brain serotonin 5-HT2 receptor (Homo sapiens, UniProt P28223); assay: In vitro binding, brain serotonin 5-HT2 receptor; settings: dihydrochloride salt; read-out: binding affinity K1
T1 construct: from tissue; host or cells: brain
T1 sequence (P28223 whole entry): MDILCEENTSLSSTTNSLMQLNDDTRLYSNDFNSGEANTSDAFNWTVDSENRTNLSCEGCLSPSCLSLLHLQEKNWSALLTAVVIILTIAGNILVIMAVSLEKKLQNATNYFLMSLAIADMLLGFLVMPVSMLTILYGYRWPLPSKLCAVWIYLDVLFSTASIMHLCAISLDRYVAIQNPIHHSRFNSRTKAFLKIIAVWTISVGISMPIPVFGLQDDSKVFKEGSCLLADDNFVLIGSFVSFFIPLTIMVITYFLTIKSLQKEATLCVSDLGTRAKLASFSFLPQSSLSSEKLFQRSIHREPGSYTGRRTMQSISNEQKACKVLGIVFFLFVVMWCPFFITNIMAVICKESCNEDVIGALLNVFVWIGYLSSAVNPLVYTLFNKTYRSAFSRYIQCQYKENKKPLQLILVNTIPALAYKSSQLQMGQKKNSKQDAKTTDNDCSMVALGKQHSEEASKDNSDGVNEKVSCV

[6] = molecular target: T2, dopamine D1 receptor (Homo sapiens, UniProt P21728); assay: In vitro binding, dopamine D1 receptor; settings: dihydrochloride salt; read-out: binding affinity K1
T2 construct: from tissue; host or cells: brain
T2 sequence (P21728 whole entry): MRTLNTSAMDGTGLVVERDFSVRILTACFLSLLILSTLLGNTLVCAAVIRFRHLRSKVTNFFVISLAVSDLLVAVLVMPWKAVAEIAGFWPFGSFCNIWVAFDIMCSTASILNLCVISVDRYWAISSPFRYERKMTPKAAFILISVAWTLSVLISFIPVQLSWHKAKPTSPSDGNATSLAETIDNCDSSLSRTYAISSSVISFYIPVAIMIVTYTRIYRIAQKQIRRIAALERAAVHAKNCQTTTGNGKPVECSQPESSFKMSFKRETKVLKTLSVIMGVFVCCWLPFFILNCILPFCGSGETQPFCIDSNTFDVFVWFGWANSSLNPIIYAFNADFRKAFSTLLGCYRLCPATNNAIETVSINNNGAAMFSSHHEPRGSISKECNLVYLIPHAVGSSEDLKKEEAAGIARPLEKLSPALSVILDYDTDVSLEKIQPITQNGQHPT

OCCOCCN1CCN(C2=Nc3ccccc3Sc3ccccc32)CC1 [Quetiapine, reference compound]
antidepressant effect (immobility) [1]: no effect

CNCCC(Oc1ccc(C(F)(F)F)cc1)c1ccccc1 (stereo not shown) [fluoxetine, reference compound]
reduction of immobility, fraction of that of the vehicle control group [2]: more than ½
duration of immobility compared to the vehicle control group ([2]; p<0.01): significantly reduced immobility

Cl.Cl.c1ccc2c(c1)N=C(N1CCNCC1)c1ccccc1S2 [Example 2, 11-piperazin-1-yldibenzo[b,f][1,4]thiazepine, dihydrochloride salt]
Ki [3]: 0.234 µM
in vivo antipsychotic activity [4]: not found to be efficacious
Ki [5]: 0.027 µM
Ki [6]: 1.49 µM
